# Experimental data: patent US20240228504A1, “SUBSTITUTED TRICYCLIC AMIDES, ANALOGUES THEREOF, AND METHODS USING SAME” (Arbutus Biopharma Corporation, priority 2020, published 2024)
# Test system: HBV rcDNA in HepDE19 cells
# Experiment: HepDE19 assay with bDNA quantitation of HBV rcDNA
# Type: cell-based, hepatitis B virus
# Conditions: HepDE19 assay, inhibition of rcDNA formation, bDNA quantitation; read-out: DE-19bDNA EC50
row,Structure (SMILES),EC50 [nM]
1,"CN(C(=O)c1cc2c(F)cccc2[nH]1)C1COCc2[nH]c(=O)c3cc(F)c(F)cc3c21 (single isomer, unassigned) [Compound 24, N-(8,9-Difluoro-6-oxo-1,4,5,6-tetrahydro-2H-pyrano[3,4-c]isoquinolin-1-yl)-4-fluoro-N-methyl-1H-indole-2-carboxamide]",4
2,"CN(C(=O)c1cc2c(F)cccn2c1)C1C[S+]([O-])Cc2[nH]c(=O)c3cc(F)c(F)cc3c21 (single isomer, unassigned) [Compound 150, N-(8,9-Difluoro-3-oxido-6-oxo-1,4,5,6-tetrahydro-2H-thiopyrano[3,4-c]isoquinolin-1-yl)-8-fluoro-N-methylindolizine-2-carboxamide]",1100
3,"CN(C(=O)c1cc2cc(C#N)ccc2[nH]1)C1COCc2[nH]c(=O)c3cc(F)ccc3c21 (single isomer, unassigned) [Compound 398, 5-Cyano-N-(8-fluoro-6-oxo-1,4,5,6-tetrahydro-2H-pyrano[3,4-c]isoquinolin-1-yl)-N-methyl-1H-indole-2-carboxamide]",270
4,"CN(C(=O)c1cc2cc(F)ccc2[nH]1)C1CNCc2[nH]c(=O)c3cc(F)c(F)cc3c21 (single isomer, unassigned) [Compound 102, N-(8,9-Difluoro-6-oxo-1,2,3,4,5,6-hexahydrobenzo[c][1,7]naphthyridin-1-yl)-5-fluoro-N-methyl-1H-indole-2-carboxamide]",1800
5,"CN(C(=O)c1cc2ccccc2[nH]1)C1CN(CCO)Cc2[nH]c(=O)c3cc(F)c(F)cc3c21 (single isomer, unassigned) [Compound 89, N-(8,9-Difluoro-3-(2-hydroxyethyl)-6-oxo-1,2,3,4,5,6-hexahydrobenzo[c][1,7]naphthyridin-1-yl)-N-methyl-1H-indole-2-carboxamide]",7900
6,"CN(C(=O)C1Cc2cc(F)ccc2N1)C1COCc2[nH]c(=O)c3cc(F)c(F)cc3c21 (single isomer, unassigned) [Compound 5, N-(8,9-Difluoro-6-oxo-1,4,5,6-tetrahydro-2H-pyrano[3,4-c]isoquinolin-1-yl)-5-fluoro-N-methylindoline-2-carboxamide]",20
7,"CN(C(=O)c1cc2c(C(F)F)cc(F)cc2[nH]1)C1CNCc2[nH]c(=O)c3cc(F)c(F)cc3c21 (single isomer, unassigned) [Compound 257, N-(8,9-Difluoro-6-oxo-1,2,3,4,5,6-hexahydrobenzo[c][1,7]naphthyridin-1-yl)-4-(difluoromethyl)-6-fluoro-N-methyl-1H-indole-2-carboxamide]",2200
8,"CN(C(=O)c1cc2c(F)cccc2[nH]1)C1COCc2[nH]c(=O)c3cc(F)c(F)cc3c21 (single isomer, unassigned) [Compound 23, N-(8,9-Difluoro-6-oxo-1,4,5,6-tetrahydro-2H-pyrano[3,4-c]isoquinolin-1-yl)-4-fluoro-N-methyl-1H-indole-2-carboxamide]",4500
9,"CN(C(=O)C1Cc2c(F)cc(F)cc2N1)C1COCc2[nH]c(=O)c3cc(F)c(F)cc3c21 (centres unmarked) [Compound 15, N-(8,9-Difluoro-6-oxo-1,4,5,6-tetrahydro-2H-pyrano[3,4-c]isoquinolin-1-yl)-4,6-difluoro-N-methylindoline-2-carboxamide]",960
10,"CN(C(=O)c1ccc2c(c1)CCC2)C1COCc2[nH]c(=O)c3cc(F)ccc3c21 (single isomer, unassigned) [Compound 443, N-(8-Fluoro-6-oxo-1,4,5,6-tetrahydro-2H-pyrano[3,4-c]isoquinolin-1-yl)-N-methyl-2,3-dihydro-1H-indene-5-carboxamide]",640
11,"CN(C(=O)c1cc2c(F)cccn2c1)C1COCc2[nH]c(=O)c3cc(F)c(F)cc3c21 (single isomer, unassigned) [Compound 10, N-(8,9-Difluoro-6-oxo-1,4,5,6-tetrahydro-2H-pyrano[3,4-c]isoquinolin-1-yl)-8-fluoro-N-methylindolizine-2-carboxamide]",10
12,"CN(C(=O)c1cc2c(C(F)F)cccc2[nH]1)C1COCc2[nH]c(=O)c3cc(F)ccc3c21 (single isomer, unassigned) [Compound 181, 4-(Difluoromethyl)-N-(8-fluoro-6-oxo-1,4,5,6-tetrahydro-2H-pyrano[3,4-c]isoquinolin-1-yl)-N-methyl-1H-indole-2-carboxamide]",5500
13,"CN(C(=O)c1cc(F)c(Br)c(F)c1)C1CNCc2[nH]c(=O)c3cc(F)ccc3c21 (single isomer, unassigned) [Compound 170, 4-Bromo-3,5-difluoro-N-(8-fluoro-6-oxo-1,2,3,4,5,6-hexahydrobenzo[c][1,7]naphthyridin-1-yl)-N-methylbenzamide]",22000

# Same assay, conditions: Hepatitis B virus, HepDE19, HepDE19 assay, inhibition of rcDNA formation, bDNA quantitation; read-out: DE-19bDNA EC50
row,Structure (SMILES),EC50 [nM]
1,"CN(C(=O)c1cc(F)c(Cl)c(F)c1)C1CNCc2[nH]c(=O)c3cc(F)ccc3c21 (single isomer, unassigned) [Compound 176, 4-Chloro-3,5-difluoro-N-(8-fluoro-6-oxo-1,2,3,4,5,6-hexahydrobenzo[c][1,7]naphthyridin-1-yl)-N-methylbenzamide]",19600
2,"O=C(N[C@@H]1COCc2[nH]c(=O)c3cc(F)c(F)cc3c21)c1cc2ccccn2c1 [Compound 148, (S)-N-(8,9-Difluoro-6-oxo-1,4,5,6-tetrahydro-2H-pyrano[3,4-c]isoquinolin-1-yl)indolizine-2-carboxamide]",760
3,"CN(C(=O)c1cc2cc(F)c(C(F)F)cc2[nH]1)[C@@H]1COCc2[nH]c(=O)c3cc(F)c(F)cc3c21 [Compound 212, (S)-N-(8,9-Difluoro-6-oxo-1,4,5,6-tetrahydro-2H-pyrano[3,4-c]isoquinolin-1-yl)-6-(difluoromethyl)-5-fluoro-N-methyl-1H-indole-2-carboxamide]",10
4,"Cc1cc2ccc(C(=O)N(C)[C@@H]3COCc4[nH]c(=O)c5cc(F)c(F)cc5c43)cn2c1 [Compound 277, (S)-N-(8,9-Difluoro-6-oxo-1,4,5,6-tetrahydro-2H-pyrano[3,4-c]isoquinolin-1-yl)-N,2-dimethylindolizine-6-carboxamide]",420
5,"CN(C(=O)c1c(F)cc(Br)cc1F)[C@@H]1COCc2[nH]c(=O)c3cc(F)c(F)cc3c21 [Compound 246, (S)-4-Bromo-N-(8,9-difluoro-6-oxo-1,4,5,6-tetrahydro-2H-pyrano[3,4-c]isoquinolin-1-yl)-2,6-difluoro-N-methylbenzamide]",1960
6,"CN(C(=O)[C@H](O)c1cccc(Cl)c1)[C@@H]1COCc2[nH]c(=O)c3cc(F)c(F)cc3c21 [Compound 138, (R)-2-(3-Chlorophenyl)-N-((S)-8,9-difluoro-6-oxo-1,4,5,6-tetrahydro-2H-pyrano[3,4-c]isoquinolin-1-yl)-2-hydroxy-N-methylacetamide]",1200
7,"CN(C(=O)c1cc2cc(F)c(F)cc2[nH]1)[C@@H]1CCC(O)c2[nH]c(=O)c3cc(F)c(F)cc3c21 (stereo partly drawn) [Compound 503, N-((1R)-8,9-difluoro-4-hydroxy-6-oxo-1,2,3,4,5,6-hexahydrophenanthridin-1-yl)-5,6-difluoro-N-methyl-1H-indole-2-carboxamide]",20
8,"CN(C(=O)c1cc(C(F)(F)F)n[nH]1)[C@@H]1COCc2[nH]c(=O)c3cc(F)c(F)cc3c21 [Compound 125, (S)-N-(8,9-Difluoro-6-oxo-1,4,5,6-tetrahydro-2H-pyrano[3,4-c]isoquinolin-1-yl)-N-methyl-3-(trifluoromethyl)-1H-pyrazole-5-carboxamide]",150
9,"CN(C(=O)C1CN(c2cscc2Br)C1)[C@@H]1COCc2[nH]c(=O)c3cc(F)c(F)cc3c21 [Compound 284, (S)-1-(4-Bromothiophen-3-yl)-N-(8,9-difluoro-6-oxo-1,4,5,6-tetrahydro-2H-pyrano[3,4-c]isoquinolin-1-yl)-N-methylazetidine-3-carboxamide]",50
10,"CN(C(=O)c1ccc(C(F)F)cc1)[C@@H]1COCc2[nH]c(=O)c3cc(F)c(F)cc3c21 [Compound 111, (S)-N-(8,9-Difluoro-6-oxo-1,4,5,6-tetrahydro-2H-pyrano[3,4-c]isoquinolin-1-yl)-4-(difluoromethyl)-N-methylbenzamide]",20
11,"CN(C(=O)c1cccc(-c2ccc(F)cc2)c1)[C@@H]1COCc2[nH]c(=O)c3cc(F)c(F)cc3c21 [Compound 289, (S)-N-(8,9-Difluoro-6-oxo-1,4,5,6-tetrahydro-2H-pyrano[3,4-c]isoquinolin-1-yl)-4′-fluoro-N-methyl-[1,1′-biphenyl]-3-carboxamide]",6400
12,"CN(C(=O)c1ccc(OC(F)F)c(F)c1)[C@@H]1COCc2[nH]c(=O)c3cc(F)c(F)cc3c21 [Compound 153, (S)-N-(8,9-Difluoro-6-oxo-1,4,5,6-tetrahydro-2H-pyrano[3,4-c]isoquinolin-1-yl)-4-(difluoromethoxy)-3-fluoro-N-methylbenzamide]",150
13,"CN(C(=O)c1cccc(C#N)c1)[C@@H]1COCc2[nH]c(=O)c3cc(F)c(F)cc3c21 [Compound 135, (S)-3-Cyano-N-(8,9-difluoro-6-oxo-1,4,5,6-tetrahydro-2H-pyrano[3,4-c]isoquinolin-1-yl)-N-methylbenzamide]",770
14,"CN(C(=O)c1cc(-c2ccc(F)cc2)n[nH]1)[C@@H]1COCc2[nH]c(=O)c3cc(F)c(F)cc3c21 [Compound 126, (S)-N-(8,9-Difluoro-6-oxo-1,4,5,6-tetrahydro-2H-pyrano[3,4-c]isoquinolin-1-yl)-3-(4-fluorophenyl)-N-methyl-1H-pyrazole-5-carboxamide]",21000
15,"CN(C(=O)c1cc2cc(F)c(F)cc2[nH]1)[C@@H]1COCc2nc(OCCN)c3cc(F)c(F)cc3c21 [Compound 280, (S)-N-(6-(2-aminoethoxy)-8,9-difluoro-1,4-dihydro-2H-pyrano[3,4-c]isoquinolin-1-yl)-5,6-difluoro-N-methyl-1H-indole-2-carboxamide]",20
16,"CN(C(=O)c1cc(-c2ccc(F)cc2)on1)[C@@H]1COCc2[nH]c(=O)c3cc(F)c(F)cc3c21 [Compound 263, (S)-N-(8,9-Difluoro-6-oxo-1,4,5,6-tetrahydro-2H-pyrano[3,4-c]isoquinolin-1-yl)-5-(4-fluorophenyl)-N-methylisoxazole-3-carboxamide]",14700
